Experimental data as given in ChEMBL document CHEMBL1151438, “In vitro resistance study of rupintrivir, a novel inhibitor of human rhinovirus 3C protease” (Antimicrob Agents Chemother, 2007).

Tests used:
rhinovirus B14 [1] = assay: Ratio of EC50 for HRV14 with 3C protease with T129A, T131T/A, T143P mutation infected in human H1-HeLa cells after 5 passages for 22 days to EC50 for wild type HRV14 infected in human H1-HeLa cells; format: functional
rhinovirus A2 [2] = assay: Antiviral activity against HRV2 with 3C protease E3E/G, A103A/V, N165T mutation infected in human H1-HeLa cells assessed as virus-induced cytopathic effect after 9 passages for 62 days by XTT assay; format: functional, organism-based; conditions: Rhinovirus A
Human rhinovirus sp. [3] = assay: Ratio of EC50 for HRV Hanks with 3C protease T130A mutation infected in human H1-HeLa cells after 6 passages for 40 days to EC50 for wild type HRV Hanks infected in human H1-HeLa cells; format: functional
rhinovirus A39 [4] = assay: Ratio of EC50 for HRV39 infected in human H1-HeLa cells after 6 passages for 33 days to EC50 for wild type HRV39 infected in human H1-HeLa cells; format: functional
rhinovirus A2 [5] = assay: Antiviral activity against HRV2 infected in human H1-HeLa cells assessed as virus-induced cytopathic effect after 3 passages for 17 days by XTT assay; format: functional, organism-based; conditions: Rhinovirus A, 408 h
Human rhinovirus sp. [6] = assay: Antiviral activity against HRV Hanks with 3C protease T130A mutation infected in human H1-HeLa cells assessed as virus-induced cytopathic effect after 6 passages for 40 days by plaque reduction assay; format: functional, organism-based
rhinovirus B14 [7] = assay: Antiviral activity against HRV14 with 3C protease T129A, T131T/A, T143P mutation infected in human H1-HeLa cells assessed as virus-induced cytopathic effect after 4 passages for 17 days by XTT assay; format: functional, organism-based; conditions: Rhinovirus B, 408 h
rhinovirus A2 [8] = assay: Ratio of EC50 for HRV2 infected in human H1-HeLa cells after 8 passages for 52 days to EC50 for wild type HRV2 infected in human H1-HeLa cells; format: functional
rhinovirus B14 [9] = assay: Antiviral activity against HRV14 with 3C protease T129A, T131A, Y139H, T143P mutation infected in human H1-HeLa cells assessed as virus-induced cytopathic effect after 3 days by XTT assay; format: functional, organism-based; conditions: Rhinovirus B, 72 h
rhinovirus B14 [10] = assay: Antiviral activity against HRV14 with 3C protease T129A, T131A, T143P, Y139Y/H mutation infected in human H1-HeLa cells assessed as virus-induced cytopathic effect after 10 passages for 55 days by XTT assay; format: functional, organism-based; conditions: Rhinovirus B
rhinovirus B14 [11] = assay: Antiviral activity against HRV14 with 3C protease T131A mutation infected in human H1-HeLa cells assessed as virus-induced cytopathic effect after 3 days by XTT assay; format: functional, organism-based; conditions: Rhinovirus B, 72 h
rhinovirus B14 [12] = assay: Ratio of EC50 for HRV14 infected in human H1-HeLa cells after 1 passage for 6 days to EC50 for wild type HRV14 infected in human H1-HeLa cells; format: functional
rhinovirus A2 [13] = assay: Antiviral activity against HRV2 with 3C protease N165T mutation infected in human H1-HeLa cells assessed as virus-induced cytopathic effect after 5 passages for 30 days by XTT assay; format: functional, organism-based; conditions: Rhinovirus A
rhinovirus B14 [14] = assay: Antiviral activity against 0.02 MOI HRV14 infected in human H1-HeLa cells assessed as cell killing after 5 passages for 22 days by XTT assay; format: functional
rhinovirus B14 [15] = assay: Ratio of EC50 for HRV14 infected in human H1-HeLa cells after 9 passages for 48 days to EC50 for wild type HRV14 infected in human H1-HeLa cells; format: functional
rhinovirus A2 [16] = assay: Ratio of EC50 for HRV2 infected in human H1-HeLa cells after 1 passage for 6 days to EC50 for wild type HRV2 infected in human H1-HeLa cells; format: functional
rhinovirus A2 [17] = assay: Antiviral activity against HRV2 with 3C protease N165T mutation infected in human H1-HeLa cells assessed as virus-induced cytopathic effect after 6 passages for 37 days by XTT assay; format: functional, organism-based; conditions: Rhinovirus A
rhinovirus A2 [18] = assay: Ratio of EC50 for HRV2 infected in human H1-HeLa cells after 4 passages for 24 days to EC50 for wild type HRV2 infected in human H1-HeLa cells; format: functional
rhinovirus A2 [19] = assay: Ratio of EC50 for HRV2 with 3C protease N165T mutation infected in human H1-HeLa cells after 5 passages for 30 days to EC50 for wild type HRV2 infected in human H1-HeLa cells; format: functional
rhinovirus B14 [20] = assay: Ratio of EC50 for HRV14 with 3C protease with T129A, T131A, T143P, Y139Y/H mutation infected in human H1-HeLa cells after 10 passages for 55 days to EC50 for wild type HRV14 infected in human H1-HeLa cells; format: functional
rhinovirus A39 [21] = assay: Ratio of EC50 for HRV39 infected in human H1-HeLa cells after 3 passages for 14 days to EC50 for wild type HRV39 infected in human H1-HeLa cells; format: functional
rhinovirus B14 [22] = assay: Antiviral activity against HRV14 with 3C protease A121A/V, T129A, T131A, N132S, Y139Y/H, T143P mutation infected in human H1-HeLa cells assessed as virus-induced cytopathic effect after 12 passages for 72 days by XTT assay; format: functional, organism-based; conditions: Rhinovirus B
rhinovirus A2 [23] = assay: Antiviral activity against wild type HRV2 infected in human H1-HeLa cells assessed as virus-induced cytopathic effect after 3 days by XTT assay; format: functional, organism-based; conditions: Rhinovirus A, 72 h
rhinovirus B14 [24] = assay: Antiviral activity against HRV14 with 3C protease T129T/A, T131T/A, T143P/S mutation infected in human H1-HeLa cells assessed as virus-induced cytopathic effect after 3 passages for 14 days by XTT assay; format: functional, organism-based; conditions: Rhinovirus B, 336 h
rhinovirus A2 [25] = assay: Ratio of EC50 for HRV2 with 3C protease N165T mutation infected in human H1-HeLa cells after 4 passages for 24 days to EC50 for wild type HRV2 infected in human H1-HeLa cells; format: functional
rhinovirus A39 [26] = assay: Ratio of EC50 for HRV39 infected in human H1-HeLa cells after 2 passages for 12 days to EC50 for wild type HRV39 infected in human H1-HeLa cells; format: functional
Human rhinovirus sp. [27] = assay: Ratio of EC50 for HRV Hanks infected in human H1-HeLa cells after 2 passage for 17 days to EC50 for wild type HRV Hanks infected in human H1-HeLa cells; format: functional
rhinovirus B14 [28] = assay: Ratio of EC50 for HRV14 infected in human H1-HeLa cells after 10 passages for 55 days to EC50 for wild type HRV14 infected in human H1-HeLa cells; format: functional
rhinovirus B14 [29] = assay: Antiviral activity against HRV14 with 3C protease Y139H mutation infected in human H1-HeLa cells assessed as virus-induced cytopathic effect after 3 days by XTT assay; format: functional, organism-based; conditions: Rhinovirus B, 72 h
rhinovirus A2 [30] = assay: Ratio of EC50 for HRV2 infected in human H1-HeLa cells after 9 passages for 62 days to EC50 for wild type HRV2 infected in human H1-HeLa cells; format: functional
rhinovirus A39 [31] = assay: Ratio of EC50 for HRV39 infected in human H1-HeLa cells after 1 passage for 7 days to EC50 for wild type HRV39 infected in human H1-HeLa cells; format: functional
rhinovirus A39 [32] = assay: Antiviral activity against wild type HRV39 infected in human H1-HeLa cells assessed as virus-induced cytopathic effect after 3 days by XTT assay; format: functional, organism-based; conditions: Rhinovirus A, 72 h
rhinovirus B14 [33] = assay: Ratio of EC50 for HRV14 with 3C protease T143P mutation infected in human H1-HeLa cells to EC50 for wild type HRV14 infected in human H1-HeLa cells; format: functional

CCOC(=O)/C=C/[C@H](C[C@@H]1CCNC1=O)NC(=O)[C@@H](CC(=O)[C@@H](NC(=O)c1cc(C)on1)C(C)C)Cc1ccc(F)cc1 [RUPINTRIVIR]
Ratio EC50 (rhinovirus B14 [1]): 5 | EC50 (rhinovirus A2 [2]): 140 nM | Ratio EC50 (Human rhinovirus sp. [3]): 3 | Ratio EC50 (rhinovirus A39 [4]): 6 | EC50 (rhinovirus A2 [5]): 34 nM | EC50 (Human rhinovirus sp. [6]): 51 nM | EC50 (rhinovirus B14 [7]): 227 nM | Ratio EC50 (rhinovirus A2 [8]): 15 | EC50 (rhinovirus B14 [9]): 268 nM | EC50 (rhinovirus B14 [10]): 324 nM | EC50 (rhinovirus B14 [11]): 14 nM | Ratio EC50 (rhinovirus B14 [12]): 3.5 | EC50 (rhinovirus A2 [13]): 57 nM | Activity (rhinovirus B14 [14]): 88.2% | Ratio EC50 (rhinovirus B14 [15]): 60 | Ratio EC50 (rhinovirus A2 [16]): 1 | EC50 (rhinovirus A2 [17]): 67 nM | Ratio EC50 (rhinovirus A2 [18]): 5 | Ratio EC50 (rhinovirus A2 [19]): 2 | Ratio EC50 (rhinovirus B14 [20]): 15 | Ratio EC50 (rhinovirus A39 [21]): 6 | EC50 (rhinovirus B14 [22]): 414 nM | EC50 (rhinovirus A2 [23]): 30 nM | EC50 (rhinovirus B14 [24]): 152 nM | Ratio EC50 (rhinovirus A2 [25]): 2 | Ratio EC50 (rhinovirus A39 [26]): 4 | Ratio EC50 (Human rhinovirus sp. [27]): 2 | Ratio EC50 (rhinovirus B14 [28]): 90 | EC50 (rhinovirus B14 [29]): 14 nM | Ratio EC50 (rhinovirus A2 [30]): 15 | Ratio EC50 (rhinovirus A39 [31]): 3 | EC50 (rhinovirus A39 [32]): 24 nM | Ratio EC50 (rhinovirus B14 [33]): 1
